Literature values in patent publication US20250352536A1, “NEURORESTORATION COMPOSITIONS IMPLEMENTING MULTIPLE NEUROPLASTICITY INDUCING MECHANISMS OF ACTION” (Neuro-Innovators, Inc., priority 2022, published 2025).

Test system: recurrent stroke
Conditions: compared with aspirin, previous clinical trials

hemorrhagic events: fewer hemorrhagic events
Compound: O=C1CCc2cc(OCCCCc3nnnn3C3CCCCC3)ccc2N1 [cilostazol, Cilostazol]
incidence of recurrent stroke: significantly reduce the incidence of recurrent stroke
